# Article PMC9696794, “Synthesis and Antimicrobial Activity of Short Analogues of the Marine Antimicrobial Peptide Turgencin A: Effects of SAR Optimizations, Cys-Cys Cyclization and Lipopeptide Modifications” (International Journal of Molecular Sciences, 2022)
# Where a SMILES comes first, the peptide text is derived from it. Bridges are numbered along the chain shown (N, C = ends). The star is where a group is joined. Decanoyl = CCCCCCCCCC(=O)*; Octanoyl = CCCCCCCC(=O)*
# Experiments:
# [1] = tested on: B. subtilis (Bs, ATCC 23857); assay: microbe, parasite or virus in culture; assay type: cell-based, Bacillus subtilis; settings: ATCC 23857, 24 h
# Procedure, shortened: (§1)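 Cultures grown in Mueller–Hinton broth were adjusted by OD600 to 2.5–3 × 10^4 CFU/mL and mixed with two-fold peptide dilutions from 256 to 1 µg/mL. Plates were incubated at 35 °C with OD595 monitored every hour for 24 h.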
# [2] = tested on: C. glutamicum (Cg, ATCC 13032); assay: microbe, parasite or virus in culture; assay type: cell-based, Corynebacterium glutamicum; settings: ATCC 13032, 24 h
# Procedure, shortened: as §1
# [3] = tested on: S. aureus (Sa, ATCC 9144); assay: microbe, parasite or virus in culture; assay type: cell-based, Staphylococcus aureus; settings: ATCC 9144, 24 h
# Procedure, shortened: as §1
# [4] = tested on: S. epidermidis RP62A (Se, ATCC 35984); assay: microbe, parasite or virus in culture; assay type: cell-based, Staphylococcus epidermidis; settings: ATCC 35984, 24 h
# Procedure, shortened: as §1
# E. coli (Ec, ATCC 25922) = assay: microbe, parasite or virus in culture; assay type: cell-based, Escherichia coli; settings: ATCC 25922, 24 h
# Procedure, shortened: as §1
# [5] = tested on: P. aeruginosa (Pa, ATCC 27853); assay: microbe, parasite or virus in culture; assay type: cell-based, Pseudomonas aeruginosa; settings: ATCC 27853, 24 h
# Procedure, shortened: as §1
# all bacterial strains = assay: Antibacterial MIC assay, all bacterial strains together (range or geometric mean); assay type: cell-based; settings: for GM (geometric mean of the MIC values against all bacterial strains): Table 1, six bacterial strains; for GM of MIC Tot. bact.: Table S3, all bacterial test strains, MIC >256 set to 256
# Procedure, shortened: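 Broth microdilution in Mueller–Hinton broth against B. subtilis, C. glutamicum, S. aureus, S. epidermidis RP62A, E. coli and P. aeruginosa; inoculum 2.5–3 × 10^4 CFU/mL, 35 °C, OD595 read hourly for 24 h. MIC: lowest peptide concentration giving OD below 10% of growth control; geometric mean across strains, triplicate.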
# A. pullulans (Ap) = assay: microbe, parasite or virus in culture; assay type: cell-based, Aurobasidium pollulans; settings: 48 h
# Procedure, shortened: (§2)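 Overnight cultures in potato dextrose broth with 2% glucose at 25–30 °C were diluted to approx. 4 × 10^5 spores/mL and mixed 1:1 with two-fold peptide dilutions plated at 256 to 1 µg/mL. After 48 h at room temperature, OD600 was read. MIC was the lowest concentration giving OD below 10% of the growth control, in triplicate.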
# [6] = tested on: C. albicans (Ca, ATCC 10231); assay: microbe, parasite or virus in culture; assay type: cell-based, Candida albicans; settings: ATCC 10231, 48 h
# Procedure, shortened: as §2
# Rhodotorula sp. (Rh) = assay: microbe, parasite or virus in culture; assay type: cell-based; settings: 48 h
# Procedure, shortened: as §2
# [7] = tested on: human red blood cells (RBC); assay: Haemolytic activity assay; assay type: cell-based; settings: for Selectivity index (SI) G- / Selectivity index (SI) G+ / Selectivity index (SI) Fungi: Table S3, highest tested concentration used where EC50 above it; for Selectivity index (SI) G-: EC50/GM of Gram-negative strains; for Selectivity index (SI) G+: EC50/GM of Gram-positive strains; for Selectivity index (SI) Fungi: EC50/GM of fungi; for SI (selectivity index = EC50/GM): haemolytic EC50 over GM of MIC against all bacterial strains, Table 1; for RBC Tox. (EC50), haemolytic activity: human RBC, 1 h, 37 °C, concentration giving 50% haemolysis
# Procedure, shortened: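 Washed human erythrocytes (1% hematocrit final) incubated 1 h at 37 °C with agitation with lipopeptides at 500–3.9 μM in PBS (≤1% DMSO), duplicates. Haemoglobin release read at 545 nm relative to 0.1% Triton X-100; EC50 is 50% haemolysis, averaged from three experiments.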
# [8] = tested on: E. coli MC4100 (wild type, WT); assay: microbe, parasite or virus in culture; settings: wild type
# Description: (§3) All cyclic and linear peptides were screened for antibacterial activity against four Gram-positive strains: B. subtilis (Bs, ATCC 23857), C. glutamicum (Cg, ATCC 13032), S. aureus (Sa, ATCC 9144) and S. epidermidis RP62A (Se, ATCC 35984), and two Gram-negative strains: E. coli (Ec, ATCC 25922) and P. aeruginosa (Pa, ATCC 27853). The activity was assessed using a broth microdilution assay according to a modified CLSI-based method. Briefly, overnight bacterial cultures were grown in Mueller–Hinton (MH) broth medium (Difco Laboratories, Detroit, MI, USA) for 2 h at room temperature. The optical density (OD600) was measured, and the bacterial suspensions were adjusted to 2.5–3 × 10^4 CFU/mL in MH medium. The bacterial suspension (50 µL) was distributed in 96-well plates (Nunc, Roskilde, Denmark) preloaded with two-fold dilution series (256 to 1 µg/mL) of peptide solutions (50 µL), giving a final well volume of 100 µL. The microplates were incubated in an EnVision 2103 microplate reader (PerkinElmer, Llantrisant, UK) at 35 °C, with OD595 recorded every hour for 24 h. MIC was defined as the lowest concentration of peptides showing an optical density less than 10% of the negative (growth) control, consisting of bacterial suspension and water. Polymyxin B sulfate (Sigma-Aldrich, St. Louis, MO, USA) and chlorhexidine acetate (CHX, Fresenius Kabi, Halden, Norway), both with concentrations ranging from 12.5 to 0.09 μg/mL, served as positive (growth inhibition) controls. All peptides were tested in triplicate.
# (§4) MIC values were determined for all cyclic peptides against two E. coli strains: wild type (WT) MC4100 and the hyperpermeable variant NR698, having a deficient outer membrane. The NR698 strain, containing lptD4213/imp4213 mutation, was kindly provided by M. Grabowicz (Emory University School of Medicine, Rollins Research Center, Atlanta, GA, USA). The assay was performed in the same way as previously described for the antibacterial MIC assay.
# [9] = tested on: E. coli NR698 (outer membrane permeable mutant, imp4213); assay: microbe, parasite or virus in culture; settings: MC4100 NR698 imp4213, deficient outer membrane
# Description: as §3, §4
# [10] = tested on: Gram-positive bacterial strains; settings: Table S3; MIC >256 set to 256
# Procedure, shortened: as §1
# [11] = tested on: Gram-negative bacterial strains (E. coli and P. aeruginosa); assay: Antibacterial MIC assay, Gram-negative strains together (range or geometric mean); assay type: cell-based; settings: Table S3; MIC >256 set to 256
# Procedure, shortened: as §1
# [12] = tested on: fungi (A. pullulans, C. albicans, Rhodotorula sp.); assay: Antifungal MIC assay, all fungi together (range or geometric mean); assay type: cell-based; settings: Table S3; MIC >128 set to 128
# Procedure, shortened: as §2
Compound,Antimicrobial Activity (MIC) Gram + Bs [1] [µg/mL],Antimicrobial Activity (MIC) Gram + Cg [2] [µg/mL],Antimicrobial Activity (MIC) Gram + Sa [3] [µg/mL],Antimicrobial Activity (MIC) Gram + Se [4] [µg/mL],"Antimicrobial Activity (MIC) Gram − Ec (E. coli (Ec, ATCC 25922)) [µg/mL]",Antimicrobial Activity (MIC) Gram − Pa [5] [µg/mL],GM (geometric mean of the MIC values against all bacterial strains) (all bacterial strains) [µg/mL],GM of MIC Tot. bact. (all bacterial strains) [µg/mL],Antimicrobial Activity (MIC) Fungi Ap (A. pullulans (Ap)) [µg/mL],Antimicrobial Activity (MIC) Fungi Ca [6] [µg/mL],Antimicrobial Activity (MIC) Fungi Rh (Rhodotorula sp. (Rh)) [µg/mL],Selectivity index (SI) G- [7],Selectivity index (SI) G+ [7],Selectivity index (SI) Fungi [7],"RBC Tox. (EC50), haemolytic activity [7] [µg/mL]",MIC E. coli MC4100 (WT) [8] [µg/mL],MIC E. coli NR698 (mutant) [9] [µg/mL],GM of MIC G+ [10] [µg/mL],GM of MIC G- [11] [µg/mL],GM of MIC Fungi [12] [µg/mL],also measured
"CCCCCCCC(=O)N[C@H]1CSSC[C@@H](C(=O)N[C@@H](CCCCN)C(=O)N[C@@H](CC(C)C)C(N)=O)NC(=O)[C@H](CCCCN)NC(=O)[C@H](Cc2c[nH]c3ccccc23)NC(=O)CNC(=O)CNC(=O)[C@@H]2CCCN2C(=O)[C@H](CCCCN)NC(=O)[C@H](CCCCN)NC(=O)CNC1=O [Peptide C8-cTurg-1, C8 -(CGKKPGGWKC)KL-NH2] (Octanoyl-CGKKPGGWKCKL-NH2; disulfide 1-10)",4,4,128,32,32,128,25,25,64,64,8,> 15,> 59,> 29,>942,16,8,16,64,32,SI (selectivity index = EC50/GM) [7]: >37
"CCCCCCCC(=O)N[C@H]1CSSC[C@@H](C(=O)N[C@@H](CCCNC(=N)N)C(=O)N[C@@H](CC(C)C)C(N)=O)NC(=O)[C@H](CCCNC(=N)N)NC(=O)[C@H](Cc2c[nH]c3ccccc23)NC(=O)[C@H](Cc2c[nH]c3ccccc23)NC(=O)CNC(=O)[C@H](Cc2c[nH]c3ccccc23)NC(=O)[C@H](CCCNC(=N)N)NC(=O)[C@H](CCCNC(=N)N)NC(=O)CNC1=O [Peptide C8-cTurg-6, C8- (CGRRWGWWRC)RL-NH2] (Octanoyl-CGRRWGWWRCRL-NH2; disulfide 1-10)",4,4,8,4,8,16,6,6,64,64,32,3,6,1,30,8,8,5,11,51,SI (selectivity index = EC50/GM) [7]: 5
"CCCCCCCCCC(=O)N[C@H]1CSSC[C@@H](C(=O)N[C@@H](CCCCN)C(=O)N[C@@H](CC(C)C)C(N)=O)NC(=O)[C@H](CCCCN)NC(=O)[C@H](Cc2c[nH]c3ccccc23)NC(=O)CNC(=O)CNC(=O)[C@@H]2CCCN2C(=O)[C@H](CCCCN)NC(=O)[C@H](CCCCN)NC(=O)CNC1=O [Peptide C10-cTurg-1, C10 -(CGKKPGGWKC)KL-NH2] (Decanoyl-CGKKPGGWKCKL-NH2; disulfide 1-10)",2,2,16,4,8,32,6,6,32,64,4,> 60,> 239,> 47,>956,8,4,4,16,20,–
"CCCCCCCCCC(=O)N[C@H]1CSSC[C@@H](C(=O)N[C@@H](CCCCN)C(=O)N[C@@H](CC(C)C)C(N)=O)NC(=O)[C@H](CCCCN)NC(=O)[C@H](Cc2c[nH]c3ccccc23)NC(=O)CNC(=O)[C@H](Cc2c[nH]c3ccccc23)NC(=O)[C@H](Cc2c[nH]c3ccccc23)NC(=O)[C@H](CCCCN)NC(=O)[C@H](CCCCN)NC(=O)CNC1=O [Peptide C10-cTurg-2, C10- (CGKKWWGWKC)KL-NH2] (Decanoyl-CGKKWWGWKCKL-NH2; disulfide 1-10)",2,4,4,4,8,8,5,5,32,64,16,13,32,3,106,8,4,3,8,32,SI (selectivity index = EC50/GM) [7]: 24
